Experimental data reported in US6680331B2, “Lactam and thiolactam derivatives as anesthetic and conscious sedation agents” (priority 2001, dated 2004).
Several values for one entry are separate records, joined by “and”; a condition that tells them apart may be missing. Identical values can stand only once.

What was measured:
mice = details: cited from earlier work
Female ICR mice = assay: Loss of righting reflex (LORR) model of anesthesia; assay type: in vivo
Excerpt: Female ICR mice, weighing between 18 and 31 g were used for all experiments. The animals were housed four in a cage in a […] light/dark cycle with free access to food and water. Animal weight at the time of the experiment ranged from 22 to 33 g. On the day of the experiment, animals were brought to the lab in groups of 6-8. They were not allowed food or water for the duration of the testing period. After each experiment, animals were sacrificed.
Diethyl lactam was synthesized as described previously (Example 1 and U.S. Pat. Nos. 6,066,666 and 5,776,959) and dissolved in 0.9% saline. All drugs were given by intraperitoneal (i.p.) injections in a volume of 0.01 ml/g body weight.
The anesthetic effect was determined using the loss of righting reflex (LORR) model of anesthesia. […] The time to onset and duration of loss of righting reflex was recorded for each animal.
Animals were given diethyl lactam at doses of 250, 325, 375, 500, 625, 750, 875 and 1000 mg/kg of body weight, and the time to regain the righting reflex (RR) as well as the duration of LORR were measured (Table 1). […] Other movements include a shiver (one mouse), a head twitch (one mouse), face vibrations (one mouse) and repetitive hindlimb scratching (one mouse).

[1] = 500 mg/kg i.p., mice, ± one standard deviation
[2] = 625 mg/kg i.p., mice, ± one standard deviation
[3] = 750 mg/kg i.p., mice, ± one standard deviation
[4] = 1000 mg/kg i.p., mice, ± one standard deviation
[5] = 1000 mg/kg i.p., two mice excluded from the trial, listed as diethyl lactam

Compound: CCC1(CC)CCCNC1=O [3,3-diethyl-2-piperidinone]
- Sedative activity (mice): only weak sedative activity

Compound: CCC1(CC)CCNC1=O [DiethylABL, 3,3-diethyl-2-pyrrolidinone]
- Duration of LORR (Female ICR mice; 250 mg/kg i.p., mice): 0 min
- LORR (time to onset of loss of righting reflex) (Female ICR mice; 250 mg/kg i.p., mice): none at 30 min
- Duration of LORR (Female ICR mice; 325 mg/kg i.p., mice): 0 min
- LORR (time to onset of loss of righting reflex) (Female ICR mice; 325 mg/kg i.p., mice): none at 30 min
- Duration of LORR (Female ICR mice; 375 mg/kg i.p., mice): 0 min
- LORR (time to onset of loss of righting reflex) (Female ICR mice; 375 mg/kg i.p., mice): none at 30 min
- Face vibrations (Female ICR mice; 500 mg/kg i.p., five mice): one mouse
- Head twitch (Female ICR mice; 500 mg/kg i.p., five mice): one mouse
- Mice seen to twitch (Female ICR mice; 500 mg/kg i.p., five mice): Three of the five
- Repetitive hindlimb scratching (Female ICR mice; 500 mg/kg i.p., five mice): one mouse
- Shiver (Female ICR mice; 500 mg/kg i.p., five mice): one mouse
- Physical movements observed during the experiment (Female ICR mice; 500 mg/kg i.p., mice): various physical movements
- Duration of LORR (Female ICR mice; [1]): 38.8 ± 11.6 min
- LORR (time to onset of loss of righting reflex) (Female ICR mice; [1]): 2.4 ± 1.8 min
- Regain RR (Female ICR mice; [1]): 41 ± 12 min
- Duration of LORR (Female ICR mice; [2]): 51.3 ± 16.2 min
- LORR (time to onset of loss of righting reflex) (Female ICR mice; [2]): 1.7 ± 0.8 min
- Regain RR (Female ICR mice; [2]): 53 ± 16 min
- Duration of LORR (Female ICR mice; [3]): 109.7 ± 2.0 min
- LORR (time to onset of loss of righting reflex) (Female ICR mice; [3]): 0.9 ± 0.3 min
- Regain RR (Female ICR mice; [3]): 110 ± 2 min
- Duration of LORR (Female ICR mice; 875 mg/kg i.p., mice): >360 min
- LORR (time to onset of loss of righting reflex) (Female ICR mice; 875 mg/kg i.p., mice): 0.8 min
- Regain RR (Female ICR mice; 875 mg/kg i.p., mice): >360 min
- Duration of LORR (Female ICR mice; [4]): 1470.0 ± 756 min
- LORR (time to onset of loss of righting reflex) (Female ICR mice; [4]): 2.0 ± 2.1 min
- Regain RR (Female ICR mice; [4]): 1470 ± 85 min
- LORR (time to onset), individual mice excluded as outliers (Female ICR mice; [5]): 2.4 min and 4.2 min
- LORR duration, individual mice excluded as outliers (Female ICR mice; [5]): 156.6 min and 170.3 min
- Regaining RR, individual mice excluded as outliers (Female ICR mice; [5]): 159 min and 174.5 min
- Time of death after injection (Female ICR mice; 1000 mg/kg i.p., two mice included in the trial, listed as diethyl lactam): 7.3 min and 4.0 min
